Columns and labels:
MEK1 activated ERK1 = molecular target: T1, MEK1 activated ERK1 (Homo sapiens, UniProt P27361); experiment: Omnia continuous-read kinase assay for potency against MEK1 activated ERK1; format: biochemical; settings: MEK1 activated ERK1, ATP at KM; read-out: ERK1 Omnia WT ATP KM IC50
T1 construct: purchased Millipore (Billerica, Mass.) 14-439-K
Method in brief: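 Apparent IC50 came from initial reaction slopes (RFU vs time) plotted against log inhibitor with a variable-slope fit. Reactions were started with ERK1 (4 nM final) added to 50 μM ATP, roughly at its appKM, and 10 μM Sox-conjugated ST17 peptide in 20 mM Tris pH 7.5, 5 mM MgCl2. Fluorescence was monitored every 71 seconds.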

[1] = system: A375 cells (malignant melanoma); experiment: Inhibition of cancer cell proliferation, A375 (CellTiterGlo, 72 hours); format: cell-based; settings: Homo sapiens, A-375
Method in brief: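 GI50 derived from % growth inhibition relative to untreated wells, after luminescence (CellTiterGlo, 10 min) was converted to cell counts using a standard curve. Compound given as 3-fold dilutions from a 2× 5,000 nM stock in serum-free DMEM; 3000 A375 cells/well, 72 h culture at 37 °C.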

[2] = system: ERK1/2 phosphorylation of p90RSK in HCT116 cells; experiment: Detection of total and phospho-RSK by MSD ELISA (HCT116); format: cell-based; settings: Homo sapiens, HCT-116, read-out: ERK1/ERK2 PRSK HCT116 EC50
Method in brief: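 ERK1/2 activity read in cells as p90RSK phosphorylation: lysates from HCT116 cells given compound for 2 h at 37° C were captured on MSD plates. Detection used a pSer380 RSK or a total RSK antibody with SulfoTag secondaries.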

T1 sequence (P27361 whole entry): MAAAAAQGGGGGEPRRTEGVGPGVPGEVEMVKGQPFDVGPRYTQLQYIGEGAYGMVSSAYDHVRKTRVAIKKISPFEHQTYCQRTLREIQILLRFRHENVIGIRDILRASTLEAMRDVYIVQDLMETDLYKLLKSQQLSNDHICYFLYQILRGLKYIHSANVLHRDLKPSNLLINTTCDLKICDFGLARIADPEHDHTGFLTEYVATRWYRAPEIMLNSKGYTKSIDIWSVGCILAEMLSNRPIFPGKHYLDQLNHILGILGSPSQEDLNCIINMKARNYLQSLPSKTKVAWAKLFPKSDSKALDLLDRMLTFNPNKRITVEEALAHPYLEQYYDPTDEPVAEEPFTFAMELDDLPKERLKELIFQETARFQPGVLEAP

| SMILES | IC50 (MEK1 activated ERK1) [µM] | GI50 [1] [µM] | EC50 [2] [µM] |
| --- | --- | --- | --- |
| C=CC(=O)Nc1ccccc1Nc1nc(Nc2cc(OC)nc(N3CCCCC3)c2)ncc1C(F)(F)F [Compound I-282, N-(2-((2-((2-Methoxy-6-(piperidin-1-yl)pyridin-4-yl)amino)-5-(trifluoromethyl)pyrimidin-4-yl)amino)phenyl)acrylamide] | 0.101 to 0.5 | < 0.1 | < 0.1 |
| C=CC(=O)Nc1ccccc1Nc1nc(Nc2cc(OC)nc(N3CCS(=O)(=O)CC3)c2)ncc1C(F)(F)F [Compound I-291, N-(2-((2-((2-(1,1-Dioxidothiomorpholino)-6-methoxypyridin-4-yl)amino)-5-(trifluoromethyl)pyrimidin-4-yl)amino)phenyl)acrylamide] |  | < 0.1 | < 0.1 |
| C=CC(=O)Nc1ccccc1Nc1nc(Nc2cc(N[C@H]3CC[C@@H](O)CC3)nc(OC)c2)ncc1C(F)(F)F [Compound I-292] | < 0.1 | < 0.1 | < 0.1 |
| C=CC(=O)Nc1ccccc1Nc1nc(Nc2ccnnc2)ncc1C(F)(F)F [Compound I-293, N-(2-((2-(Pyridazin-4-ylamino)-5-(trifluoromethyl)pyrimidin-4-yl)amino)phenyl)acrylamide] | 0.101 to 0.5 | < 0.1 | < 0.1 |
| C=CC(=O)Nc1cc(C)ccc1Nc1nc(Nc2cc(OC)nc(N3CCN(C(C)=O)CC3)c2)ncc1Cl [Compound I-296, N-(2-((2-((2-(4-acetylpiperazin-1-yl)-6-methoxypyridin-4-yl)amino)-5-chloropyrimidin-4-yl)amino)-5-methylphenyl)acrylamide] |  | < 0.1 | < 0.1 |
| C=CC(=O)Nc1cc(F)ccc1Nc1nc(Nc2cc(OC)ncc2C)ncc1C(F)(F)F [Compound I-322, N-(5-fluoro-2-((2-((2-methoxy-5-methylpyridin-4-yl)amino)-5-(trifluoromethyl)pyrimidin-4-yl)amino)phenyl)acrylamide] |  | < 0.1 | 0.101 to 0.5 |
| C=CC(=O)Nc1cc(C(F)(F)F)ccc1Nc1nc(Nc2cc(OC)ncc2C)ncc1C(F)(F)F [Compound I-323, N-(2-((2-((2-methoxy-5-methylpyridin-4-yl)amino)-5-(trifluoromethyl)pyrimidin-4-yl)amino)-5-(trifluoromethyl)phenyl)acrylamide] | 0.101 to 0.5 | 0.101 to 0.5 | 0.101 to 0.5 |
| C=CC(=O)Nc1ccccc1Nc1nc(Nc2cc(OC)nc(N3CCN(C)CC3)c2)ncc1C(F)(F)F [Compound I-324, N-(2-((2-((2-methoxy-6-(4-methylpiperazin-1-yl)pyridin-4-yl)amino)-5-(trifluoromethyl)pyrimidin-4-yl)amino)phenyl)acrylamide] |  | < 0.1 | < 0.1 |
| C=CC(=O)Nc1cc(C)ccc1Nc1nc(Nc2cc(OC)nc(N3CCN(C)CC3)c2)ncc1C(F)(F)F [Compound I-325, N-(2-((2-((2-methoxy-6-(4-methylpiperazin-1-yl)pyridin-4-yl)amino)-5-(trifluoromethyl)pyrimidin-4-yl)amino)-5-methylphenyl)acrylamide] | 0.101 to 0.5 | < 0.1 | < 0.1 |
| C=CC(=O)Nc1cc(C)ccc1Nc1nc(Nc2cc(N[C@H]3CC[C@@H](O)CC3)nc(OC)c2)ncc1C(F)(F)F [Compound I-326, N-(2-((2-((2-((cis-4-hydroxycyclohexyl)amino)-6-methoxypyridin-4-yl)amino)-5-(trifluoromethyl)pyrimidin-4-yl)amino)-5-methylphenyl)acrylamide] | 0.101 to 0.5 | < 0.1 | < 0.1 |
| C=CC(=O)Nc1cc(C)ccc1Nc1nc(Nc2cc(OC)nc(N3CC(O)C3)c2)ncc1C(F)(F)F [Compound I-328, N-(2-((2-((2-(3-hydroxyazetidin-1-yl)-6-methoxypyridin-4-yl)amino)-5-(trifluoromethyl)pyrimidin-4-yl)amino)-5-methylphenyl)acrylamide] |  | < 0.1 | < 0.1 |
| C=CS(=O)(=O)Nc1cc(C)ccc1Nc1nc(Nc2cc(OC)ncc2C)ncc1C(F)(F)F [Compound I-333, N-(2-((2-((2-methoxy-5-methylpyridin-4-yl)amino)-5-(trifluoromethyl)pyrimidin-4-yl)amino)-5-methylphenyl)ethenesulfonamide] | 0.101 to 0.5 | > 1 | > 1 |

Continued, values first:

| IC50 (MEK1 activated ERK1) [µM] | GI50 [1] [µM] | EC50 [2] [µM] | SMILES |
| --- | --- | --- | --- |
|  | < 0.1 | < 0.1 | C=CC(=O)Nc1cc(OC)ccc1Nc1nc(Nc2cc(OC)nc(N3CCN(C)CC3)c2)ncc1C(F)(F)F [Compound I-334, N-(5-methoxy-2-((2-((2-methoxy-6-(4-methylpiperazin-1-yl)pyridin-4-yl)amino)-5-(trifluoromethyl)pyrimidin-4-yl)amino)phenyl)acrylamide] |
| 0.501 to 0.999 | < 0.1 | 0.101 to 0.5 | C=CC(=O)Nc1cc(C)ccc1Nc1nc(Nc2cc(OC)nc(N(C)CCOC)c2)ncc1C(F)(F)F [Compound I-336, N-(2-((2-((2-methoxy-6-((2-methoxyethyl)(methyl)amino)pyridin-4-yl)amino)-5-(trifluoromethyl)pyrimidin-4-yl)amino)-5-methylphenyl)acrylamide] |
| 0.501 to 0.999 | < 0.1 | < 0.1 | C=CC(=O)Nc1cc(C)ccc1Nc1nc(Nc2cc(NC3CC3)nc(OC)c2)ncc1C(F)(F)F [Compound I-337, N-(2-((2-((2-(cyclopropylamino)-6-methoxypyridin-4-yl)amino)-5-(trifluoromethyl)pyrimidin-4-yl)amino)-5-methylphenyl)acrylamide] |
| 0.101 to 0.5 | < 0.1 | < 0.1 | C=CC(=O)Nc1ccccc1Nc1nc(Nc2cc(OC)cc(OC)c2)ncc1C(F)(F)F [Compound I-338, N-(2-((2-((3,5-dimethoxyphenyl)amino)-5-(trifluoromethyl)pyrimidin-4-yl)amino)phenyl)acrylamide] |
|  | < 0.1 | 0.101 to 0.5 | C=CC(=O)Nc1cc(C)ccc1Nc1nc(Nc2cc(OC)cc(OC)c2)ncc1C(F)(F)F [Compound I-339, N-(2-((2-((3,5-dimethoxyphenyl)amino)-5-(trifluoromethyl)pyrimidin-4-yl)amino)-5-methylphenyl)acrylamide] |
| 0.101 to 0.5 | 0.101 to 0.5 | 0.101 to 0.5 | C=CC(=O)Nc1ccccc1Nc1nc(Nc2cc(OC)ccc2C)ncc1C(F)(F)F [Compound I-340, N-(2-((2-((5-methoxy-2-methylphenyl)amino)-5-(trifluoromethyl)pyrimidin-4-yl)amino)phenyl)acrylamide] |
| 0.501 to 0.999 | 0.101 to 0.5 | 0.101 to 0.5 | C=CC(=O)Nc1cc(C)ccc1Nc1nc(Nc2cc(OC)nc(N(C)C3CC3)c2)ncc1C(F)(F)F [Compound I-342, N-(2-((2-((2-(cyclopropyl(methyl)amino)-6-methoxypyridin-4-yl)amino)-5-(trifluoromethyl)pyrimidin-4-yl)amino)-5-methylphenyl)acrylamide] |

Source: patent US9561228B2 (Celgene Avilomics Research, Inc., priority 2013, dated 2017)
